Tests used:
[1] = Chemical stability (autoclaving at 121° C.); type: physicochemical; details: 5 mmol Gd/L in 10 mM Tris-HCl buffer, pH 7.4, 121° C. for 20 min
Water solubility = type: physicochemical; details: 10 mM Tris-HCl buffer, 20° C.
How it was run: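 Solid compound added stepwise to 10 mM Tris-HCl buffer at 20° C., shaken and sonicated 5 min, then left overnight at 20° C. Gadolinium concentration in the resulting suspension measured by ICP-MS.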

GS9L brain tumors = assay: Contrast-enhanced MRI of brain tumors in rats; type: in vivo, male Fisher rats (F344); details: GS9L rat brain tumors, 0.1 mmol Gd/kg bw vs Reference compound 1 0.1 mmol Gd/kg bw, FIG. 11A

## CC(C(=O)NCC(=O)NCC(CNC(=O)CNC(=O)C(C)N1CCN(CC(=O)[O-])CCN(CC(=O)[O-])CCN(CC(=O)[O-])CC1)(CNC(=O)CNC(=O)C(C)N1CCN(CC(=O)[O-])CCN(CC(=O)[O-])CCN(CC(=O)[O-])CC1)CNC(=O)CNC(=O)C(C)N1CCN(CC(=O)[O-])CCN(CC(=O)[O-])CCN(CC(=O)[O-])CC1)N1CCN(CC(=O)[O-])CCN(CC(=O)[O-])CCN(CC(=O)[O-])CC1.[Gd+3].[Gd+3].[Gd+3].[Gd+3] (stereo not drawn) [Example 3, Tetragadolinium [4,10-bis(carboxylatomethyl)-7-{3,6,12,15-tetraoxo-16-[4,7,10-tris-(carboxylatomethyl)-1,4,7,10-tetraazacyclododecan-1-yl]-9,9-bis({[({2-[4,7,10-tris-(carboxylatomethyl)-1,4,7,10-tetraazacyclododecan-1-yl]propanoyl}amino)acetyl]-amino}methyl)-4,7,11,14-tetraazaheptadecan-2-yl}-1,4,7,10-tetraazacyclododecan-1-yl]acetate]
[1]
  appearance of the solution after autoclaving: still clear and colorless
Water solubility
  Solubility: >1400 mmol Gd/L
GS9L brain tumors
  lesion-to-brain contrast at the same dose: higher lesion-to-brain contrast and an excellent demarcation of the tumor rim
